Patent US4680310A, “Tetrahydronaphthalene derivatives” (Hoffmann-La Roche Inc., priority 1984, dated 1987)
pIC50: −log10 of the molar value.

Assays:
[1] = test system: ^3 H-nifedipine (or ^3 H-nitrendipine) receptor binding on homogenates or partially-cleaned membranes of rabbit or guinea pig heart; test: ^3 H-Nifedipine binding determinations (test A); conditions: nifedipine established as 100%
Description: A. ^3 H-Nifedipine binding determinations:
The determination is carried out on homogenates or on partially-cleaned membranes of rabbit or guinea pig heart. The reaction mixture (0.3 ml) consists of 0.2-0.8 mg of membrane protein, 1 nM of ^3 H-nifedipine (or 0.25 nM of ^3 H-nitrendipine) and various concentrations of the test substances. The incubation lasts 30 minutes at 25° C. or 37° C. and is stopped by dilution with the incubation buffer; a filtration is subsequently carried out. The filter-bound radioactivity is measured with a scintillation counter. Specific binding (i.e. receptor-bound) is defined as the differences between total and unspecific-bound radioactivity. The unspecific binding is determined in the presence of an excess of non-radioactive nifedipine (1 μM).
The activity (potency) of a compound in this test is defined by the IC50 and % maximum inhibition values (% max. inhibition). The IC50 is the substance concentration (in mol/l) which produces a half-maximum inhibition of the specific ^3 H-nifedipine (or ^3 H-nitrendipine) binding. The maximum inhibition of the specific binding is given by the % maximum inhibition value; this value is established as 100% for the reference compound nifedipine. Both parameters are extrapolated from a concentration-binding curve.

[2] = test system: Coronary artery strips of dogs (KCl contracture; tension-dependent calcium channel); test: Relaxation of KCl contracture in coronary artery strips of dogs (test B); type: cell-based, dog; conditions: Canis lupus familiaris, KCl 84.7 mM, 37° C., read-out: IC50 (half-maximum relaxation of a KCl contracture)
Description: B. Coronary artery strips of dogs:
In this experiment spiral strips (2-2.5 mm wide and 10 mm long) of coronary arteries of dogs are cut and hung up in an organ chamber under an initial tension of 1.5 g. These strips are pre-incubated for a duration of about 1 to 2 hours in Krebs-Henseleit buffer solution which is gassed with Oxycarbon (a mixture of 95% oxygen and 5% carbon dioxide) at 37° C. The relaxing activity of one of these substances is subsequently tested on a KCl (84.7 mM) contracture by the addition of increasing concentrations of the test substance to the organ chamber. The calcium channel-blocking activity of the test substances can therefore be established, as the KCl contracture occurs exclusively by means of calcium flow through the tension-dependent calcium channel.
The activity of a test substance in this test is given by the IC50 value. This value is defined as the substance concentration (in mol/l) which produces a half-maximum relaxation of a KCl contracture. This value is also extrapolated from the resulting concentration-activity curve.

narcotized dog = test: Haemodynamic parameters in the narcotized dog (test C); type: in vivo; conditions: 0.1 mg/kg i.v.
Source text: C. Haemodynamic parameters in the narcotized dog:
The 4 most important measurement parameters (with respective measurement units) of the haemodynamic experiment are: (1) CBF: Coronary Blood Flow (in ml/min)--the velocity of blood flow through the coronary arteries; (2) HR: heart rate (in beats/min)--the heart frequency; (3) BP: blood pressure (in mm Hg)--the blood pressure; and (4) dp/dt: rate of increase in left ventricular pressure (in mm Hg/sec) as a measurement of the contractility force of the heart. The values are given as the % maximum variation from the initial value (Δ%) per dosage administered.
There is thus obtained not only an overall picture of the activity of the substance, but also an estimation as to the potential selectivity for a specific part of the circulatory system in the entire organism. After the administration of an anaesthetic, the dog is intubated and respired artificially. Blood pH, pCO2, pO2 and haemoglobin are measured hourly with a blood-gas analyser. The blood pressure (systolic and diastolic) is measured with a probe in the aorta abdominalis. The heart frequency is recorded by means of a tachometer, which is disengaged from the pressure pulse. For the other measurements the heart must first be opened in order that a probe can be inserted in the left ventricle (heart chamber) for the pressure measurements (dp/dt). The coronary blood flow is measured with a flowing probe in the left coronary artery (descendens).

Compound | % max inhib. (maximum inhibition of specific binding) [1] [%] | pIC50 [2] | BP (blood pressure), % maximum variation from the initial value (narcotized dog) | CBF (Coronary Blood Flow), % maximum variation from the initial value (narcotized dog) | HR (heart rate), % maximum variation from the initial value (narcotized dog) | dp/dt (rate of increase in left ventricular pressure), % maximum variation from the initial value (narcotized dog)
COCC(=O)O[C@]1(CCN(C)CCc2ccc(OC)c(OC)c2)CCc2cc(F)ccc2[C@@H]1C(C)C (relative stereo) [A, 2-[2-[(3,4-Dimethoxyphenethyl)methylamino]ethyl]-6-fluoro-1,2,3,4-tetrahydro-1α-isopropyl-2α-naphthyl methoxyacetate] | 77 | 8.55 | -18 Δ % | +93 Δ % | -3 Δ % | -5 Δ %
COCC(=O)O[C@]1(CCN(C)CCc2ccc(OC)c(OC)c2)CCc2cc(F)ccc2[C@@H]1C(C)C [B, [1S,2S]-2-[2-[(3,4-dimethoxyphenethyl)methylamino]ethyl]-6-fluoro-1,2,3,4-tetrahydro-1-isopropyl-2-naphthyl methoxyacetate] | 100 | 8.21 | -23 Δ % | +100 Δ % | -20 Δ % | +13 Δ %
COCC(=O)O[C@]1(CCN(C)CCc2ccc(OC)c(OC)c2)CCc2cc(OC)c(OC)cc2[C@@H]1C(C)C (relative stereo) [E, 6,7-dimethoxy-2-[2-[(3,4-dimethoxyphenethyl)methylamino]ethyl]-1,2,3,4-tetrahydro-1α-isopropyl-2α-naphthyl methoxyacetate] | 88 | 7.70 | -12 Δ % | +65 Δ % | -7 Δ % | +22 Δ %
COc1ccc(CCN(C)CC[C@@]2(OC(C)=O)CCc3cc(OC)c(OC)cc3[C@@H]2C(C)C)cc1OC (relative stereo) [D, 6,7-dimethoxy-2-[2-[(3,4-dimethoxyphenethyl)methylamino]ethyl]-1,2,3,4-tetrahydro-1α-isopropyl-2α-naphthyl acetate] | 82 | 7.06 | -9 Δ % | +58 Δ % | -15 Δ % | +3 Δ %
COCC(=O)O[C@@]1(CCN(C)CCc2ccc(OC)c(OC)c2)CCc2cc(F)ccc2[C@H]1C(C)C [C, [1R,2R2-[2[(3,4Dimethoxyphenethyl)methylamino]ethyl6-fluoro-1,2,3,4-tetraydro-1-isopropyl-2-napthyl methoxyacetate] | 73 | 7.11 | -16 Δ % | +58 Δ % | -5 Δ % | +26 Δ %
